Values quoted from earlier work as cited in paper PMC4959752, “Pharmacokinetics in Wistar Rats of 5-[(4-Carboxybutanoyl)Amino]-2-Hydroxybenzoic Acid: A Novel Synthetic Derivative of 5-Aminosalicylic Acid (5-ASA) with Possible Anti-Inflammatory Activity” (PLoS ONE, 2016).

Legend:
plasma protein = settings: comparison value; cited from earlier work
[1] = literature value; cited from earlier work

SMILES	protein binding (plasma protein) [%]	plasma half-life [1] [min]
Nc1ccc(O)c(C(=O)O)c1 [5-ASA, 5-aminosalicylic acid]	40	
CC(=O)Oc1ccccc1C(=O)O [aspirin]		15
